Laboratory results: BigSolDB 2.1

Cc1ccc2cc(C)ccc2c1
Details | solubility (mole fraction)
in cyclohexane, 293.18 K | 0.03
in cyclohexane, 298.86 K | 0.0398
in cyclohexane, 305.57 K | 0.0513
in cyclohexane, 312.3 K | 0.0714
in cyclohexane, 318.76 K | 0.096
in cyclohexane, 323.07 K | 0.115
in cyclohexane, 325.79 K | 0.134
in cyclohexane, 333.08 K | 0.187
in cyclohexane, 339.97 K | 0.253
in ethyl acetate, 287.56 K | 0.0424
in ethyl acetate, 292.27 K | 0.0494
in ethyl acetate, 298.27 K | 0.0585
in ethyl acetate, 305.69 K | 0.0775
in ethyl acetate, 311.52 K | 0.0957
in ethyl acetate, 318.89 K | 0.123
in ethyl acetate, 325.2 K | 0.158
in ethyl acetate, 332.01 K | 0.2
in ethyl acetate, 338.58 K | 0.256
in isooctane, 288.36 K | 0.0234
in isooctane, 293.19 K | 0.0294
in isooctane, 298.62 K | 0.0344
in isooctane, 306.77 K | 0.0487
in isooctane, 315.41 K | 0.0725
in isooctane, 322.03 K | 0.0905
in isooctane, 327.1 K | 0.113
in isooctane, 334.57 K | 0.149
in isooctane, 341.2 K | 0.197
in isopropanol, 286.65 K | 0.0054
in isopropanol, 294.55 K | 0.0072
in isopropanol, 301.45 K | 0.0098
in isopropanol, 309.65 K | 0.0136
in isopropanol, 315.75 K | 0.0174
in isopropanol, 323.22 K | 0.023
in isopropanol, 330.55 K | 0.0297
in isopropanol, 335.95 K | 0.0371
in isopropanol, 341.65 K | 0.0517
in n-heptane, 288.85 K | 0.0289
in n-heptane, 293.58 K | 0.0359
in n-heptane, 298.72 K | 0.0433
in n-heptane, 304.56 K | 0.0529
in n-heptane, 311.77 K | 0.0632
in n-heptane, 317.8 K | 0.0775
in n-heptane, 324.79 K | 0.0979
in n-heptane, 332.39 K | 0.132
in n-heptane, 339.42 K | 0.17
in n-propyl acetate, 286.65 K | 0.0485
in n-propyl acetate, 293.5 K | 0.0638
in n-propyl acetate, 300.85 K | 0.0815
in n-propyl acetate, 307.41 K | 0.103
in n-propyl acetate, 313.85 K | 0.127
in n-propyl acetate, 320.65 K | 0.159
in n-propyl acetate, 328.22 K | 0.206
in n-propyl acetate, 333.46 K | 0.245
in n-propyl acetate, 338.17 K | 0.289
